Results from patent publication US7847152B2, “Use of tryptophan indole and anthranilate analogs as plant transformation selection agents” (The Board of Trustees of the University of Illinois, priority 2006, dated 2010).

system: Arabidopsis germinating seedlings; assay: Discrimination between wild type and ASA2 expressing Arabidopsis germinating seedlings; type: in vivo; settings: Arabidopsis seeds

SMILES	concentration for discriminating between wild type and ASA2 expressing Arabidopsis germinating seedlings
Fc1cccc2[nH]ccc12 [4FI, 4-Fluoroindole]	4FI 70 μM
Cc1cccc2[nH]cc(C[C@H](N)C(=O)O)c12 [4MT, 4-methyltrypthophan]	4MT 70 μM
Fc1ccc2[nH]ccc2c1 [5FI, 5-Fluoroindole]	5FI 20 μM
N[C@@H](Cc1c[nH]c2ccc(O)cc12)C(=O)O [5HT, 5-hydroxyl-L-tryptophan]	5HT 200 μM
Cc1ccc2[nH]cc(C[C@H](N)C(=O)O)c2c1 [5MT, 5-methyltrypthophan]	5MT 200 μM
C[C@](N)(Cc1c[nH]c2ccccc12)C(=O)O [α-MT, α- methyltrypthophan]	α-MT 20 μM

system: tobacco shoot producing leaf discs; assay: Discrimination between wild type and ASA2 expressing tobacco shoot producing leaf discs; type: cell-based; settings: not given
Procedure: Various concentrations of the different analogs were tested on maize, soy bean, and tobacco that includes growth inhibition test of germination, leaf callus formation test, and other growth inhibition tests (FIGS. 15-38).
Leaf callus/shoot formation was studied on Tobacco Regeneration Medium that was MS basal medium with 88 μM 6-benzyladenine (BA) and 0.5 μM naphthalene acetic acid (NAA) and various concentrations of different Trp and indole analogs using a total of 30 leaf discs (6 mm each in diameter) from either the untransformed wild type (WT) tobacco or the ASA2 expressing transgenic line transformed with pAST-IV vector (line ASTIV) at 28° C. under fluorescent light as described above. Callus formation and shoot production was visually evaluated after 2, 4 and 6 weeks. Seedling growth inhibition was studied as described herein.

SMILES	concentration for discriminating between wild type and ASA2 expressing tobacco shoot producing leaf discs
CC(=O)c1c[nH]c2ccccc12 [3-acetylI]	3-acetylI 500 μM
Nc1ccc(F)cc1C(=O)O [5FA]	5FA 150 μM
Cc1ccc(N)c(C(=O)O)c1 [5MA, 5-methylanthranilate]	5MA 800 μM
COc1ccc2[nH]ccc2c1 [5MI, 5-Methoxyindole]	5MI 1000 μM
Cc1cccc(N)c1C(=O)O [6MA, 6-methylanthranilate]	6MA 70 μM
COc1cccc2cc[nH]c12 [7MI, 7-Methoxyindole]	7MI 1000 μM
